Tested on: 885512-296-R-J2-PDC complex spheroid growth, % test/control
Experiment: Anticancer human tumor 885512-296-R-J2-PDC patient-derived breast carcinoma cell line growth inhibition [Asc]
Conditions: for IC50: curve of first compound; for viability, T/C: stronger effect = lower value
Summary of the method: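 Tumor cells were grown as multicellular spheroids with stromal HUVEC and mesenchymal stem cells and treated singly or in combination. Concentrations fell in half-log steps from the clinical Cmax, or from 10 microM where none was known.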

[1] = second compound 0.1 µM, first compound 0.00316 µM
[2] = second compound 0.1 µM, first compound 0.01 µM
[3] = second compound 0.1 µM, first compound 0.0316 µM
[4] = second compound 0.1 µM, first compound 0.1 µM
[5] = second compound 0.1 µM, first compound 0.316 µM
[6] = second compound 0.1 µM, first compound 1 µM
[7] = second compound 0.316 µM, first compound 0.00316 µM
[8] = second compound 0.316 µM, first compound 0.01 µM
[9] = second compound 0.316 µM, first compound 0.0316 µM
[10] = second compound 0.316 µM, first compound 0.1 µM
[11] = second compound 0.316 µM, first compound 0.316 µM
[12] = second compound 0.316 µM, first compound 1 µM
[13] = second compound 1 µM, first compound 0.00316 µM
[14] = second compound 1 µM, first compound 0.01 µM
[15] = second compound 1 µM, first compound 0.0316 µM
[16] = second compound 1 µM, first compound 0.1 µM
[17] = second compound 1 µM, first compound 0.316 µM
[18] = second compound 1 µM, first compound 1 µM
[19] = second compound 3.16 µM, first compound 0.00316 µM
[20] = second compound 3.16 µM, first compound 0.01 µM
[21] = second compound 3.16 µM, first compound 0.0316 µM
[22] = second compound 3.16 µM, first compound 0.1 µM
[23] = second compound 3.16 µM, first compound 0.316 µM
[24] = second compound 3.16 µM, first compound 1 µM
[25] = second compound 10 µM, first compound 0.00316 µM
[26] = second compound 10 µM, first compound 0.01 µM
[27] = second compound 10 µM, first compound 0.0316 µM
[28] = second compound 10 µM, first compound 0.1 µM
[29] = second compound 10 µM, first compound 0.316 µM
[30] = second compound 10 µM, first compound 1 µM
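Also: spheroids exposed to compounds for seven days.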
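For viability, T/C in this document: 100% = DMSO vehicle control wells.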

Row | Structure (SMILES) | IC50 (second compound 0.1 µM) | IC50 (second compound 0.316 µM) | IC50 (second compound 1 µM) | IC50 (second compound 3.16 µM) | IC50 (second compound 10 µM) | viability, T/C [1] | viability, T/C [2] | viability, T/C [3] | viability, T/C [4] | viability, T/C [5] | viability, T/C [6] | viability, T/C [7] | viability, T/C [9] | viability, T/C [10] | viability, T/C [15] | viability, T/C [16] | viability, T/C [21] | viability, T/C [22] | viability, T/C [27] | viability, T/C [28] | also measured
1 | CCN1CCN(Cc2ccc(Nc3ncc(F)c(-c4cc(F)c5nc(C)n(C(C)C)c5c4)n3)nc2)CC1 + Cc1c(S(C)(=O)=O)c(-c2cc(F)cc(N3CCN(c4ccc(NS(=O)(=O)c5ccc(NC(CCN6CCC(C(=O)OCCCP(=O)(O)O)CC6)CSc6ccccc6)c(S(=O)(=O)C(F)(F)F)c5)cc4)CC3)c2)c(-c2ccc(Cl)cc2)n1C(C)C | > 1 µM | > 1 µM | > 1 µM | > 1 µM | > 1 µM | 85.9% | 104% | 89.3% | 71.7% | 65.5% | 61% | 102% | 83.3% | 68.3% | 76% | 76.3% | 92.6% | 89% | 108% | 126% | viability, T/C [8]: 89.9%; viability, T/C [11]: 66.1%; viability, T/C [12]: 65%; viability, T/C [13]: 92.6%; viability, T/C [14]: 91.5%; viability, T/C [17]: 67.8%; viability, T/C [18]: 69.1%; viability, T/C [19]: 90.8%; viability, T/C [20]: 83.5%; viability, T/C [23]: 72.5%; viability, T/C [24]: 61.9%; viability, T/C [25]: 118%; viability, T/C [26]: 116%; viability, T/C [29]: 125%; viability, T/C [30]: 113%
2 | Cn1ncnc1[C@H]1c2n[nH]c(=O)c3cc(F)cc(c23)N[C@@H]1c1ccc(F)cc1 + Cc1c(S(C)(=O)=O)c(-c2cc(F)cc(N3CCN(c4ccc(NS(=O)(=O)c5ccc(NC(CCN6CCC(C(=O)OCCCP(=O)(O)O)CC6)CSc6ccccc6)c(S(=O)(=O)C(F)(F)F)c5)cc4)CC3)c2)c(-c2ccc(Cl)cc2)n1C(C)C | 0.0172 µM | 0.0264 µM | 0.0172 µM | 0.0215 µM | 0.0287 µM | 66.3% | 53.1% | 47.5% | 29.1% |  |  | 85.9% | 54.2% | 26.6% | 44.1% | 27.9% | 41.5% | 27.9% | 47.2% | 27.9% | viability, T/C (second compound 0.1 µM, first compound 0.000316 µM): 85.5%; viability, T/C (second compound 0.1 µM, first compound 0.001 µM): 78.4%; viability, T/C (second compound 0.316 µM, first compound 0.000316 µM): 105%; viability, T/C (second compound 0.316 µM, first compound 0.001 µM): 77.6%; viability, T/C [8]: 58.5%; viability, T/C (second compound 1 µM, first compound 0.000316 µM): 87.1%; viability, T/C (second compound 1 µM, first compound 0.001 µM): 91.1%; viability, T/C [13]: 78.4%; viability, T/C [14]: 55.3%; viability, T/C (second compound 3.16 µM, first compound 0.000316 µM): 88%; viability, T/C (second compound 3.16 µM, first compound 0.001 µM): 77.1%; viability, T/C [19]: 77.8%; viability, T/C [20]: 66.2%; viability, T/C (second compound 10 µM, first compound 0.000316 µM): 120%; viability, T/C (second compound 10 µM, first compound 0.001 µM): 97.9%; viability, T/C [25]: 82.8%; viability, T/C [26]: 73%
3 | O=C(c1cc(Cc2n[nH]c(=O)c3ccccc23)ccc1F)N1CCN(C(=O)C2CC2)CC1 + Cc1c(S(C)(=O)=O)c(-c2cc(F)cc(N3CCN(c4ccc(NS(=O)(=O)c5ccc(NC(CCN6CCC(C(=O)OCCCP(=O)(O)O)CC6)CSc6ccccc6)c(S(=O)(=O)C(F)(F)F)c5)cc4)CC3)c2)c(-c2ccc(Cl)cc2)n1C(C)C | 4.75 µM | 4.35 µM | 3.76 µM | 3.67 µM | 3.29 µM |  |  | 90.8% | 105% | 95.5% | 91% |  | 96.4% | 96.7% | 83.3% | 98.8% | 101% | 106% | 125% | 113% | viability, T/C (second compound 0.1 µM, first compound 3.16 µM): 67.9%; viability, T/C (second compound 0.1 µM, first compound 10 µM): 17.4%; viability, T/C [11]: 104%; viability, T/C [12]: 96.6%; viability, T/C (second compound 0.316 µM, first compound 3.16 µM): 64.2%; viability, T/C (second compound 0.316 µM, first compound 10 µM): 13.1%; viability, T/C [17]: 104%; viability, T/C [18]: 92%; viability, T/C (second compound 1 µM, first compound 3.16 µM): 56.8%; viability, T/C (second compound 1 µM, first compound 10 µM): 11.7%; viability, T/C [23]: 99%; viability, T/C [24]: 88.1%; viability, T/C (second compound 3.16 µM, first compound 3.16 µM): 55.7%; viability, T/C (second compound 3.16 µM, first compound 10 µM): 11.7%; viability, T/C [29]: 97.5%; viability, T/C [30]: 90.3%; viability, T/C (second compound 10 µM, first compound 3.16 µM): 47.5%; viability, T/C (second compound 10 µM, first compound 10 µM): 9.81%
4 | O=C(c1ccc(F)c(F)c1Nc1ccc(I)cc1F)N1CC(O)([C@@H]2CCCCN2)C1 + Cc1c(S(C)(=O)=O)c(-c2cc(F)cc(N3CCN(c4ccc(NS(=O)(=O)c5ccc(NC(CCN6CCC(C(=O)OCCCP(=O)(O)O)CC6)CSc6ccccc6)c(S(=O)(=O)C(F)(F)F)c5)cc4)CC3)c2)c(-c2ccc(Cl)cc2)n1C(C)C | 0.121 µM | 0.0941 µM | 0.089 µM | 0.0779 µM | 0.452 µM | 77.6% | 82.5% | 69.9% | 50.8% | 34% | 13.1% | 94% | 63.6% | 51.9% | 68.1% | 48.4% | 55.1% | 51.5% | 99.2% | 96.1% | viability, T/C [8]: 88.8%; viability, T/C [11]: 28.7%; viability, T/C [12]: 13.7%; viability, T/C [13]: 86.9%; viability, T/C [14]: 68.7%; viability, T/C [17]: 30.2%; viability, T/C [18]: 12.2%; viability, T/C [19]: 102%; viability, T/C [20]: 86.8%; viability, T/C [23]: 30.4%; viability, T/C [24]: 11.2%; viability, T/C [25]: 111%; viability, T/C [26]: 109%; viability, T/C [29]: 64.2%; viability, T/C [30]: 16.4%

Reference: PubChem BioAssay AID1963447 (Molecular Pharmacology Branch, DTP, NCI, 2024)
